Laboratory results as given in publication PMC11507932, “Comparative Analysis on Polyphenolic Composition of Different Olive Mill Wastewater and Related Extra Virgin Olive Oil Extracts and Evaluation of Nutraceutical Properties by Cell-Based Studies” (Foods, 2024).
Marks after values point to notes of the source that are not given here.

How the values were obtained:
[1] = Superoxide radical scavenging assay (NBT reduction); type: biochemical; settings: mean ± SD (n = 3)
Experimental: The superoxide radical (O2^−) scavenging capacity was spectrophotometrically evaluated, in accordance with Gomes et al.. Absorbance was read at 560 nm for 6 min at 37 °C in a Synergy HT Microplate Reader. The results were expressed as IC50, of the reduction in NBT to a purple-colored diformazan by the reaction with O2.

[2] = Hypochlorous acid scavenging assay (DHR oxidation); type: biochemical; settings: mean ± SD (n = 3)
Experimental: The uptake capacity of hypochlorous acid (HOCl^−) was determined by monitoring the effect of OMWW extracts in the HOCl^− induced oxidation of dihydrorhodamine (DHR) to rhodamine, as reported by Gomes et al.. The fluorescence was read at 37 °C for 5 min, at wavelengths of 485 ± 20 nm and 528 ± 20 nm. The results were expressed as the inhibition, in IC50, of HOCl^− induced DHR oxidation.

[3] = system: co-culture of Caco-2 and HT29-MTX cell lines; assay: Intestinal permeability assay, Caco-2/HT29-MTX co-culture, LC-MS quantification; type: in vitro ADME, human; settings: for calculated concentration, basolateral side / calculated concentration, apical side: OMWW B1 sample, mean ± SD (n = 3); for calculated concentration, apical side: apical (100% reference); for Mean Permeation Rate (±SD) at 240 min: polyphenol within OMWW B1 sample (500 µg/mL), apical to basolateral
Experimental: The instrumental setup consisted of an Agilent (Santa Clara, CA, USA) 1290 UHPLC system, which included a binary pump, a column oven maintained at 40 °C, and a temperature-controlled autosampler. This system was connected to a Sciex (Concord, ON, Canada) QTRAP 6500+ mass spectrometer operating as a triple quadrupole, equipped with an IonDrive™ Turbo V source performing electrospray ionization (ESI). […] The instrument control and data acquisition were performed using Sciex Analyst® version 1.7 software and MultiquantTM software version 3.0.3. Data analysis was carried out using Microsoft 365® Excel software (Albuquerque, NM, USA) and GraphPad (San Diego, CA, USA) Prism version 9.0.2. The mass spectrometry selected reaction monitoring (SRM) method was operated in negative ion mode. For each compound, declustering potential (DP), collision energy (CE), and collision exit potential (CxP) were optimized, and three transitions were considered for analysis. One transition was used for quantification (Q), while the other two were used as qualifiers (q). The transition list and additional operational parameters are already reported. A stock solution of each standard compound, including the internal standard, was prepared in MeOH at a concentration of 100 μg/mL and stored at −20 °C. Calibration curves were freshly prepared in pure LC-MS water. […] [34]. The experiments were performed 21 days after seeding the cells in 12 well plates. During this period, the transepithelial electrical resistance (TEER) was monitored to evaluate the cell monolayer integrity. On the last day, cell monolayers were pre-equilibrated with fresh HBSS (pH 7.4) at 37 °C for 30 min. […] At the same time, the TEER was evaluated, using an EVOM Epithelial Volthometer Instrument equipped with a chopstick electrode (World Precision Instruments, Sarasota, FL, USA). After each sampling time, the basolateral side was replaced with the same HBSS volume. Samples were conserved at −20 °C for subsequent LC/ESI-MS analysis, according to Section 2.5.

[4] = system: co-culture of Caco-2 and HT29-MTX cell lines; parameters: method as in PMID 37446813; settings: tyrosol alone, same model; cited from earlier work
[5] = DPPH free radical scavenging assay; type: biochemical; settings: mean ± standard error (n = 3); 45 min, rt
Experimental: The antiradical activity of OMWW and EVOO samples was assessed by the DPPH free radical scavenging, as reported by Cuffaro et al.. Briefly, 100 μL of DPPH MeOH solution (40.0 μg/mL) was added to 100 μL of the sample solution in MeOH (1 mg/mL to 0.01 mg/mL), and the resulting solution was incubated for 45 min at rt and in the dark. The absorbance was read at 517 nm in a Molecular Devices […] (200-1000 nm) UV/Vis spectrophotometer. Trolox® was the positive control and was treated under the same conditions as the samples. The percent of antioxidant activity (%AA) was calculated according to the following equation:%AA = ([…] = DPPH solution absorbance Abssample = DPPH solution containing the test compound absorbance […] All experiments were performed in triplicate.

[6] = ABTS radical cation scavenging assay; type: biochemical; settings: mean ± standard error (n = 3); 5 min, rt
Experimental: The ABTS free radical scavenging activity of samples was evaluated by radical cation colorimetric assay in accordance with Cuffaro et al.. Briefly, the ABTS solution (7 mM of aqueous solution of ABTS with 2.45 mM potassium persulfate in a 1:1 ratio) was incubated for 12 h in the dark at rt. Then, the solution was diluted with EtOH to obtain an absorbance of 0.7 at 750 nm. A total of 10 μL of sample solution (1 mg/mL to 0.01 mg/mL) in EtOH was mixed with 180 μL of ABTS solution and the solution was incubated for 5 min at rt. The final absorbance was read at 734 nm in a Molecular Devices […] (200-1000 nm) UV/Vis spectrophotometer. The % scavenging ability was calculated as follows:% scavenging ability = ([…] = ABTS solution absorbance Abssample = ABTS solution containing the test compound absorbance. […] Trolox® was employed as positive control and was treated under the same conditions as the samples. All experiments were performed in triplicate.

SMILES | O2^− scavenging IC50 [1] | HOCl^− scavenging IC50 [2] | calculated concentration, basolateral side ([3]; 30 min) | calculated concentration, basolateral side ([3]; 60 min) | calculated concentration, basolateral side ([3]; 120 min) | calculated concentration, basolateral side ([3]; 180 min) | calculated concentration, basolateral side ([3]; 240 min) | calculated concentration, apical side [3] | Mean Permeation Rate (±SD) at 240 min ([3]; 240 min) [%] | permeation (release) at 240 min [4] [%] | Mean Permeation Rate (±SD) at 240 min ([3]; 240 min, listed as caffeic acid) [%] | DPPH IC50 [5] | ABTS IC50 [6] | Mean Permeation Rate (±SD) at 240 min ([3]; 240 min, listed as hydroxytyrosol) [%]
O.Oc1cc(O)c2c(c1)O[C@H](c1ccc(O)c(O)c1)[C@@H](O)C2 [Catechin] | 18.01 ± 0.34 ^c,d μg/mL | 0.20 ± 0.01 ^b μg/mL |  |  |  |  |  |  |  |  |  |  |  | 
O=C(O)c1cc(O)c(O)c(O)c1 [Gallic acid] | 6.34 ± 0.21 ^d μg/mL | 2.60 ± 0.05 ^b μg/mL |  |  |  |  |  |  |  |  |  |  |  | 
OCCc1ccc(O)cc1 [Tyrosol] |  |  | 155,50 ± 6,36 ng/mL | 224,50 ± 21,92 ng/mL | 259,50 ± 47,38 ng/mL | 256,50 ± 13,44 ng/mL | 314,00 ± 33,94 ng/mL | 587,50 ± 234,05 ng/mL | 59 ± 29 | 78 |  |  |  | 
O=C(O)/C=C/c1ccc(O)c(O)c1 [Caffeic acid] |  |  | 0,31 ± 0,10 ng/mL | 0,40 ± 0,25 ng/mL | 1,29 ± 0,31 ng/mL | 2,00 ± 0,01 ng/mL | 1,89 ± 0,42 ng/mL | 7,31 ± 0,74 ng/mL | 26 ± 3 |  | 26 |  |  | 
Cc1c(C)c2c(c(C)c1O)CCC(C)(C(=O)O)O2 (stereo not drawn) [Trolox] |  |  |  |  |  |  |  |  |  |  |  | 0.007 ± 0.001 ^h mg/mL | 0.003 ± 0.0004 ^i mg/mL | 
OCCc1ccc(O)c(O)c1 [Hydroxytyrosol] |  |  | 7,42 ± 5,35 ng/mL | 9,12 ± 5,78 ng/mL | 15,75 ± 5,02 ng/mL | 19,40 ± 2,55 ng/mL | 15,20 ± 1,98 ng/mL | 45,30 ± 0,85 ng/mL | 34 ± 5 |  |  |  |  | 34
